13 compounds from patent publication US20240342292A1, “Compounds for the Degradation of EGFR Kinase” (BeiGene Switzerland GmbH, priority 2021, published 2024) can be followed below.

The test system of one assay is Del19/T790M/C797S EGFR. Briefly: EGFR degradation HTRF assay in H1975-clone #28 (DTC) cells. The format is cell-based. Particulars: H1975 # 28 DTC (Del19/T790M/C797S), 16h treatment; for DC50: HTRF; for Dmax (%): maximum percentage of degradation. A digest of the protocol:
(§1)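 Engineered H1975 lines (exogenous mutant EGFR, endogenous copies knocked out, single clones sequence-verified); 16 h compound, 37 °C/5% CO2, 0.2% DMSO; top 10 uM, 5-fold, 8 pts; lysis 1 h RT, HTRF antibodies overnight RT; 4-parameter logistic fit → DC50.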
In general terms: Time-resolved FRET reads energy transfer from a long-lived donor to a nearby acceptor.

The target in another assay is T1, L858R/T790M/C797S EGFR (Homo sapiens, UniProt P00533, C797S/L858R/T790M).
T1 construct: expressed in transfected cells; host or cells: H1975 clone #25 (lentiviral over-expression, endogenous EGFR knocked out by sgRNA)
T1 sequence (P00533 25-1210 T790M/C797S/L858R): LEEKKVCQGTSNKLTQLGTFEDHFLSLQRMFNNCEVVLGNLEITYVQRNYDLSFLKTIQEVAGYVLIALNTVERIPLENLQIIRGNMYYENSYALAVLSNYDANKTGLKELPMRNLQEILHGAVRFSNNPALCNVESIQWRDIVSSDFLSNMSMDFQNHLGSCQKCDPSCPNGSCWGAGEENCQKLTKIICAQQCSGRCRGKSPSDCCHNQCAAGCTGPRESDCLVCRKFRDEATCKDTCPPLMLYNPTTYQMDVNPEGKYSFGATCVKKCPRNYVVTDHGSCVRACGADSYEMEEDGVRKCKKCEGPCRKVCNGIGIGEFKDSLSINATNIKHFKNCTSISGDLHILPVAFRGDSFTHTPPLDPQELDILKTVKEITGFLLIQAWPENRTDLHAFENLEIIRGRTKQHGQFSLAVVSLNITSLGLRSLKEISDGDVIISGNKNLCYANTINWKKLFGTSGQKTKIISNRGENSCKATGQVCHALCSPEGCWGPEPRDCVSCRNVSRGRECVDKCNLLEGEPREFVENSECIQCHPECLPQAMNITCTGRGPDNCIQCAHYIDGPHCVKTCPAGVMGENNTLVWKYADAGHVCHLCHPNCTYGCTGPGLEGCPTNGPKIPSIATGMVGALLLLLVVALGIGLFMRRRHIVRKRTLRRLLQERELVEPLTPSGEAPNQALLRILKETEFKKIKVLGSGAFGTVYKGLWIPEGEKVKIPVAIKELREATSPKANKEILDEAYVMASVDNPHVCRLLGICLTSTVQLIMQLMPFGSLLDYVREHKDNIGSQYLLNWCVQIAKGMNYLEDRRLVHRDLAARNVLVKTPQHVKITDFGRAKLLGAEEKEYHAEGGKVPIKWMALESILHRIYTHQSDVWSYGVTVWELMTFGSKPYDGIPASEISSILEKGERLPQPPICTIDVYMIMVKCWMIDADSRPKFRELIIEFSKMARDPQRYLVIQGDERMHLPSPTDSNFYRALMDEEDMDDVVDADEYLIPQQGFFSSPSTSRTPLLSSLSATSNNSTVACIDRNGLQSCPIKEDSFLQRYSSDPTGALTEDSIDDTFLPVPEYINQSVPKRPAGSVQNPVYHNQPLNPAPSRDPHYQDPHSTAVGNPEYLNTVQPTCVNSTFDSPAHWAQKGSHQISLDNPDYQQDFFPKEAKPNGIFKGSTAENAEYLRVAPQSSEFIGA
Description: EGFR degradation HTRF assay in H1975-clone #25 (LTC) cells. The format is cell-based. To be noted: 16h treatment; for DC50: H1975 # 25-LTC (L858R/T790M/C797S), HTRF; for Dmax: NCI-H1975, H1975 # 25-LTC (L858R/T790M/C797S), maximum percentage of degradation. A digest of the protocol:
as §1

Molecules are shown by their SMILES.

As a reminder, the DC50 is the concentration at which degradation of the target reaches its halfway point. High values mean degradation only at high concentration, low ones degradation at low concentration. The Dmax is the largest share of the target that was removed. Lower therefore signals shallow degradation. In the case of `Cc1cc2cc(n1)-c1cnn(C)c1OCCC[C@@H](C)CN1/C(=N/C2=O)Nc2ccc(C(=O)N3CC[C@@H](N(C)CCc4cc(F)c([C@H]5CCC(=O)NC5=O)c(F)c4)C3)cc21` [Example 295, (R)-3-(2,6-difluoro-4-(2-(menthyl((R)-1-((R,E)-1^1,2^6,7-trimethyl-3-oxo-5^2,5^3-dihydro-1^1H,5^1H-11-oxa-4-aza-5(2,1)-benzo[d]imidazola-2(2,4)-pyridina-1(4,5)-pyrazolacycloundecaphane-5^6-carbonyl)pyrrolidin-3-yl)amino)ethyl)phenyl)piperidine-2,6-dione], in the assay on Del19/T790M/C797S EGFR, the 50% degradation concentration (DC50) was found to be 0.313 nM and the “Dmax (%)” value came out at 78.39%. At L858R/T790M/C797S EGFR, this compound returned a half-maximal degradation concentration (DC50) of 0.478 nM and a Dmax of 89.5%.
In the same order, the values of `Cc1cc2cc(n1)-c1cnn(C)c1OCCC[C@@H](C)CN1/C(=N/C2=O)Nc2ccc(C(=O)N(C)CC(F)(F)C3CCN(CCc4cc(F)c([C@H]5CCC(=O)NC5=O)c(F)c4)CC3)cc21` [Example 275, (R,E)-N-(2-(1-(4-((R)-2,6-dioxopiperidin-3-yl)-3,5-difluorophenethyl)piperidin-4-yl)-2,2-difluoroethyl)-N,1^1,2^6,7-tetramethyl-3-oxo-5^2,5^3-dihydro-1^1H,5^1H-11-oxa-4-aza-5(2,1)-benzo[d]imidazola-2(2,4)-pyridina-1(4,5)-pyrazolacycloundecaphane-5^6-carboxamide] are 0.798 nM, 78.92%, 1.01 nM and 88.9%.
In the same order, the values of `Cc1cc2cc(n1)-c1cnn(C)c1OCCC[C@@H](C)CN1/C(=N/C2=O)Nc2ccc(CN3CCC(N4CCN(C(=O)[C@H]5CCN(c6ccc7c(c6)C(=O)N(C6CCC(=O)NC6=O)C7=O)C5)CC4)CC3)cc21` (stereo partly shown) [Example 216] are 3.02 nM, 82.64%, 9.55 nM and 81.8%.
In the same order, the values of `Cc1cc2cc(n1)-c1cnn(C)c1OCCC[C@@H](C)CN1/C(=N/C2=O)Nc2ccc(CN3CCN(C(=O)[C@@H]4CCN(c5cc(F)c([C@H]6CCC(=O)NC6=O)c(F)c5)C4(C)C)C[C@@H]3C)cc21` [Example 190, (R)-3-(4-((R)-2,2-dimethyl-3-((S)-3-methyl-4-(((R,E)-1^1,2^6,7-trimethyl-3-oxo-5^2,5^3-dihydro-1^1H,5^1H -11-oxa-4-aza-5(2,1)-benzo[d]imidazola-2(2,4)-pyridina-(4,5)-pyrazolacycloundecaphane-5^6-yl)methyl)piperazine-1-carbonyl)pyrrolidin-1-yl)-2,6-difluorophenyl)piperidine-2,6-dione] are 0.742 nM, 64.16%, 1.17 nM and 82.2%.
Regarding `Cc1cc2cc(n1)-c1cnn(C)c1OCCC[C@@H](C)CN1/C(=N/C2=O)Nc2ccc(CN3CCN(C(=O)[C@@H]4CCN(c5cc(F)c([C@H]6CCC(=O)NC6=O)c(F)c5)C4)CC34COC4)cc21` [Example 199, (R)-3-(2,6-difluoro-4-((R)-3-(5-(((R,E)-1^1,2^6,7-trimethyl-3-oxo-5^2,5^3-dihydro-1^1H,5^1H-11-oxa-4-aza-5(2,1)-benzo[d]imidazola-2(2,4)-pyridina-1(4,5)-pyrazolacycloundecaphane-5^6-yl)methyl)-2-oxa-5,8-diazaspiro[3.5]nonane-8-carbonyl)pyrrolidin-1-yl)phenyl)piperidine-2,6-dione], in the assay with Del19/T790M/C797S EGFR, the DC50 came to 0.752 nM and the “Dmax (%)” value amounted to 73.3%. On L858R/T790M/C797S EGFR, this compound gave a DC50 of 0.638 nM and a maximal degradation (Dmax) of 76.5%.
In the same order, the values of `Cc1cc2cc(n1)-c1cnn(C)c1OCCC[C@@H](C)CN1/C(=N/C2=O)Nc2ccc(N3CCN(C4CCN(c5cc(F)c([C@H]6CCC(=O)NC6=O)c(F)c5)CC4)C(=O)C3)cc21` [Example 425, (R)-3-(2,6-difluoro-4-(4-(2-oxo-4-((R,E)-1^1,2^6,7-trimethyl-3-oxo-5^2,5^3-dihydro-1^1H,5^1H-11-oxa-4-aza-5(2,1)-benzo[d]imidazola-2(2,4)-pyridina-1(4,5)-pyrazolacycloundecaphane-5^6-yl)piperazin-1-yl)piperidin-1-yl)phenyl)piperidine-2,6-dione] are 0.957 nM, 83.85%, 0.73 nM and 92.7%.
As for `Cc1cc2cc(n1)-c1cnn(C)c1OCCC[C@@H](C)CN1/C(=N/C2=O)Nc2ccc(N3CCN(CCNc4cc(F)c([C@H]5CCC(=O)NC5=O)c(F)c4)CC3)cc21` (single isomer, unassigned) [Example 368], in the assay with Del19/T790M/C797S EGFR, it took 0.623 nM to reach half-maximal degradation (DC50) and the “Dmax (%)” value was determined as 80.06%. On L858R/T790M/C797S EGFR, this compound yielded a 50% degradation concentration (DC50) of 0.546 nM and a Dmax of 88%.
In the same order, the values of `COC[C@H]1CN(C2CCN(c3cc(F)c([C@H]4CCC(=O)NC4=O)c(F)c3)CC2)CCN1c1ccc2c(c1)N1C[C@H](C)CCCOc3c(cnn3C)-c3cc(cc(C)n3)C(=O)/N=C/1N2` [Example 385, (R)-3-(2,6-difluoro-4-(4-((R)-3-(methoxymethyl)-4-((R,E)-1^1,2^6,7-trimethyl-3-oxo-5^2,5^3-dihydro-1^1H,5^1H-li-oxa-4-aza-5(2,1)-benzo[d]imidazola-2(2,4)-pyridina-1(4,5)-pyrazolacycloundecaphane-5^6-yl)piperazin-1-yl)piperidin-1-yl)phenyl)piperidine-2,6-dione] are 1.58 nM, 63.01%, 2.63 nM and 82.3%.
In the same order, the values of `Cc1cc2cc(n1)-c1cnn(C)c1OCCC[C@@H](C)CN1/C(=N/C2=O)Nc2ccc(C(=O)N3CC[C@H](NCCc4cc(F)c([C@H]5CCC(=O)NC5=O)c(F)c4)C3)cc21` [Example 298, (R)-3-(2,6-difluoro-4-(2-(((S)-1-((R,E)-1^1,2^6,7-trimethyl-3-oxo-5^2,5^3-dihydro-1^1H,5^1H-11-oxa-4-aza-5(2,1)-benzo[d]imidazola-2(2,4)-pyridina-1(4,5)-pyrazolacycloundecaphane-5^6-carbonyl)pyrrolidin-3-yl)amino)ethyl)phenyl)piperidine-2,6-dione] are 1.2 nM, 66.58%, 1.14 nM and 90.1%.
In the same order, the values of `Cc1cc2cc(n1)-c1cnn(C)c1OCCC[C@@H](C)CN1/C(=N/C2=O)Nc2ccc(C(=O)N(C)[C@H]3CCN(CCc4cc(F)c([C@H]5CCC(=O)NC5=O)c(F)c4)C[C@@H]3F)cc21` [Example 247, (R,E)-N-((3S,4S)-1-(4-((R)-2,6-dioxopiperidin-3-yl)-3,5-difluorophenethyl)-3-fluoropiperidin-4-yl)-N,1^1,2^6,7-tetramethyl-3-oxo-5^2,5^3-dihydro-1^1H,5^1H-11-oxa-4-aza-5(2,1)-benzo[d]imidazola-2(2,4)-pyridina-1(4,5)-pyrazolacycloundecaphane-5^6-carboxamide] are 0.611 nM, 87.12%, 0.6 nM and 92.5%.
For `Cc1cc2cc(n1)-c1cnn(C)c1OCCC[C@@H](C)CN1/C(=N/C2=O)Nc2ccc(N3CCC(NC4CCN(c5cc(F)c([C@H]6CCC(=O)NC6=O)c(F)c5)CC4)CC3)cc21` [Example 401, (R)-3-(2,6-difluoro-4-(4-((1-((R,E)-1^1,2^6,7-trimethyl-3-oxo-5^2,5^3-dihydro-1^1H,5^1H-11-oxa-4-aza-5(2,1)-benzo[d]imidazola-2(2,4)-pyridina-1(4,5)-pyrazolacycloundecaphane-5^6-yl)piperidin-4-yl)amino)piperidin-1-yl)phenyl)piperidine-2,6-dione], in the assay with Del19/T790M/C797S EGFR, it took 3.18 nM to reach half-maximal degradation (DC50) and the “Dmax (%)” value worked out at 70.19%. At L858R/T790M/C797S EGFR, this compound had a DC50 of 1.37 nM and a maximal degradation (Dmax) of 81.1%.
Taken in the same sequence, the figures for `Cc1cc2cc(n1)-c1cnn(C)c1OCCC[C@@H](C)CN1/C(=N/C2=O)Nc2ccc(C(=O)N3CCC4(CC3)CN(CCc3cc(F)c([C@H]5CCC(=O)NC5=O)c(F)c3)C4)cc21` [Example 310, (R)-3-(2,6-difluoro-4-(2-(7-((R,E)-1^1,2^6,7-trimethyl-3-oxo-5^2,5^3-dihydro-1^1H,5^1H-11-oxa-4-aza-5(2,1)-benzo[d]imidazola-2(2,4)-pyridina-1(4,5)-pyrazolacycloundecaphane-5^6-carbonyl)-2,7-diazaspirononan-2-yl)ethyl)phenyl)piperidine-2,6-dione] were 0.578 nM, 80.51%, 0.464 nM and 87.8%.
In the same order, the values of `Cc1cc2cc(n1)-c1cnn(C)c1OCCC[C@@H](C)CN1/C(=N/C2=O)Nc2cc(F)c(C3CCN(C(=O)[C@@H]4CCN(c5cc(F)c(C6CCC(=O)NC6=O)c(F)c5)C4)CC3)cc21` (stereo partly drawn) [Example 329, (R)-3-(2,6-difluoro-4-((R)-3-(4-((R,E)-5^5-fluoro-1^1,2^6,7-trimethyl-3-oxo-5^2,5^3-dihydro-1^1H,5^1H-11-oxa-4-aza-5(2,1)-benzo[d]imidazola-2(2,4)-pyridina-1(4,5)-pyrazolacycloundecaphane-5^6-yl)piperidine-1-carbonyl)pyrrolidin-1-yl)phenyl)piperidine-2,6-dione] are 2.19 nM, 68.61%, 2.97 nM and 78.7%.
